Like-named read-outs stand apart in the source and are kept apart here. Each block holds one molecule with its values, some of them ahead of it.
What was measured:
Format in all cases: cell-based
[1] = target: T1, human α2(T22I)β2-nAChR (Homo sapiens, UniProt P17787+Q15822, T22I); details: for Higher agonist sensitivity of 1:10 (HS) than 1:1 or 10:1 receptors: α2(T22I):β2 1:10 vs 1:1 or 10:1 cRNA; for Lower Imax of 10:1 than 1:1 receptors / Lower agonist sensitivity of 10:1 than 1:1 receptors: α2(T22I):β2 10:1 vs 1:1 cRNA; for Peak response Imax (Mean±SE): at the Imax concentration of the agonist
T1 sequence (Q15822 27-529): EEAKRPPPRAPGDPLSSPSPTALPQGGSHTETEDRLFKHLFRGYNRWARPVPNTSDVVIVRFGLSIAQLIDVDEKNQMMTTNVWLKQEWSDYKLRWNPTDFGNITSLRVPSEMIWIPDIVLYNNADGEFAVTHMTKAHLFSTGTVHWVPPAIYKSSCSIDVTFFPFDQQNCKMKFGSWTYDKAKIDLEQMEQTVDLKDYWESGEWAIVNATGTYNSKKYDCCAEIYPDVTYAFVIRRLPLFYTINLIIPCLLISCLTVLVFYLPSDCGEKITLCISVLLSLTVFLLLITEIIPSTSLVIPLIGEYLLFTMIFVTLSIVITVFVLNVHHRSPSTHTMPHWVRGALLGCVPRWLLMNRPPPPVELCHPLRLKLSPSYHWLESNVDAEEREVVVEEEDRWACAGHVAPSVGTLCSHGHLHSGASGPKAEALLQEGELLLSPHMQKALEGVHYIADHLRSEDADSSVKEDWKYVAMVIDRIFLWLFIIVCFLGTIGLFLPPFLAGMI
T1 sequence (P17787 26-502): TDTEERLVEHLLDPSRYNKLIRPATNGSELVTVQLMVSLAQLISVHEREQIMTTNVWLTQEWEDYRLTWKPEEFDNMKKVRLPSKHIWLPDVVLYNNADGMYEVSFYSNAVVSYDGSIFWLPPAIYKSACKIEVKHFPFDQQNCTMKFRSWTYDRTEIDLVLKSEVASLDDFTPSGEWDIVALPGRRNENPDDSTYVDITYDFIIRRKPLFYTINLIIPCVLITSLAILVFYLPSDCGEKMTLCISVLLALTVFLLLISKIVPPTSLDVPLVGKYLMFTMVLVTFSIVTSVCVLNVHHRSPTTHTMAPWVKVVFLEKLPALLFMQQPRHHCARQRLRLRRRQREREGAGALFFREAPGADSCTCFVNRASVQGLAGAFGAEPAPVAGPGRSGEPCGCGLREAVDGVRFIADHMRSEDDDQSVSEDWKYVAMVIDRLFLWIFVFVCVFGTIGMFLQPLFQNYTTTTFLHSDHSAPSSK

[2] = target: T2, human α2β2-nAChR (Homo sapiens, UniProt P17787+Q15822); details: for Peak current: hα2hβ2opt, 316 μM ACh or 100 μM nicotine; for Higher agonist sensitivity of 1:10 (HS) than 1:1 receptors: α2:β2 1:10 vs 1:1 cRNA; for Higher agonist sensitivity of 1:10 (HS) than 1:1 receptors / Higher agonist sensitivity of 1:10 (HS) than 10:1 (LS) receptors: range printed for ACh or nicotine together; for Lower Imax of 1:10 (HS) than 1:1 or 10:1 receptors: α2:β2 1:10 vs 1:1 or 10:1 cRNA; for Higher agonist sensitivity of 1:10 (HS) than 10:1 (LS) receptors: α2:β2 1:10 vs 10:1 cRNA; for Lower Imax of 10:1 than 1:1 receptors / Lower agonist sensitivity of 10:1 than 1:1 receptors: α2:β2 10:1 vs 1:1 cRNA; for Peak response Imax (Mean±SE): at the Imax concentration of the agonist; for EC50: Potency EC50 (95% CI), −70 mV
T2 sequence (Q15822 27-529): as the sequence (Q15822 27-529) above
T2 sequence (P17787 26-502): as the sequence (P17787 26-502) above

[3] = target: hα2hβ2wt-nAChR (Homo sapiens, UniProt P17787+Q15822); details: 316 μM ACh or 100 μM nicotine
hα2hβ2wt-nAChR, sequence (Q15822 27-529): as the sequence (Q15822 27-529) above
hα2hβ2wt-nAChR, sequence (P17787 26-502): as the sequence (P17787 26-502) above

[4] = target: T2, human α2β2-nAChR; experiment: Mecamylamine block of agonist-induced Imax responses; details: 1000 μM mecamylamine; α2:β2 1:1, 10:1 or 1:10; data not shown
[5] = target: T3, human α2(T22I)β4-nAChR (Homo sapiens, UniProt P30926+Q15822, T22I); experiment: Mecamylamine block of agonist-induced peak currents; details: ACH-2, read-out: Inhibition of ACh-induced peak current responses, 1000 μM mecamylamine; 316 μM ACh; α2(T22I):β4 1:1
T3 sequence (Q15822 27-529): as the sequence (Q15822 27-529) above
T3 sequence (P30926 22-498): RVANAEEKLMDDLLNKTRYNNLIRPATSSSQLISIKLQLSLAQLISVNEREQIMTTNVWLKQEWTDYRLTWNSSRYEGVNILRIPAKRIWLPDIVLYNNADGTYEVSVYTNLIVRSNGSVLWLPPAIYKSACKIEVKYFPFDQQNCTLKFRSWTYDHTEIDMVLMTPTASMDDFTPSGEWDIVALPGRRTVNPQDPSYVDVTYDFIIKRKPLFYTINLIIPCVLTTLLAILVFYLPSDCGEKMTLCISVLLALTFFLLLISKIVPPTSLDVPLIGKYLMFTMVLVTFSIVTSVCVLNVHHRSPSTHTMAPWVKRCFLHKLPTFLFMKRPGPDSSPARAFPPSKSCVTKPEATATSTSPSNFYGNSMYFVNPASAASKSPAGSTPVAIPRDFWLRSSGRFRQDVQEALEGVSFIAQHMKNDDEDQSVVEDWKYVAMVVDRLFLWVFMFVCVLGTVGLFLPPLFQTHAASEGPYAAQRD

[6] = target: T1, human α2(T22I)β2-nAChR; experiment: Mecamylamine block of agonist-induced Imax responses; details: 1000 μM mecamylamine; α2(T22I):β2 1:1, 10:1 or 1:10; data not shown
[7] = target: human α2β4-nAChR (Homo sapiens, UniProt P30926+Q15822); details: for EC50: Potency EC50 (95% CI), −70 mV; for Peak response Imax (Mean±SE): at the Imax concentration of the agonist
human α2β4-nAChR, sequence (Q15822 27-529): as the sequence (Q15822 27-529) above
human α2β4-nAChR, sequence (P30926 22-498): as the sequence (P30926 22-498) above

[8] = target: T3, human α2(T22I)β4-nAChR; details: for EC50: Potency EC50 (95% CI), −70 mV; for Peak response Imax (Mean±SE): at the Imax concentration of the agonist

SMILES: CC(=O)OCC[N+](C)(C)C [ACh, acetylcholine]
Higher agonist sensitivity of 1:10 (HS) than 1:1 or 10:1 receptors [1]: 4–9 fold | Lower Imax of 10:1 than 1:1 receptors [1]: ~ 25 fold | Lower agonist sensitivity of 10:1 than 1:1 receptors [1]: ~ 2 fold | Hill coefficient nH ± SE ([1]; α2(T22I)β2(1:1)): 0.9 ± 0.08 | Peak response Imax (Mean±SE) ([1]; α2(T22I)β2(1:1)): 1326 ± 214 nA | Peak response Imax (Mean±SE) ([1]; α2(T22I)β2(1:10)): 952 ± 128 nA | Hill coefficient nH ± SE ([1]; α2(T22I)β2(10:1)): 0.9 ± 0.3 | Peak response Imax (Mean±SE) ([1]; α2(T22I)β2(10:1)): 54 ± 9 nA | Peak current [2]: 406±89 nA | Higher agonist sensitivity of 1:10 (HS) than 1:1 receptors [2]: 2–3 fold | Lower Imax of 1:10 (HS) than 1:1 or 10:1 receptors [2]: 47–70% | Higher agonist sensitivity of 1:10 (HS) than 10:1 (LS) receptors [2]: 8–18 fold | Lower Imax of 10:1 than 1:1 receptors [2]: ~ 43% | Lower agonist sensitivity of 10:1 than 1:1 receptors [2]: ~ 5 fold | Hill coefficient nH ± SE ([2]; α2β2(1:1)): 0.7 ± 0.05 | Peak response Imax (Mean±SE) ([2]; α2β2(1:1)): 551 ± 62 nA | Hill coefficient nH ± SE ([2]; α2β2(1:10)): 1 ± 0.08 | Peak response Imax (Mean±SE) ([2]; α2β2(1:10)): 167 ± 18 nA | Hill coefficient nH ± SE ([2]; α2β2(10:1)): 0.9 ± 0.08 | Peak response Imax (Mean±SE) ([2]; α2β2(10:1)): 314 ± 84 nA | Peak current [3]: 28±6 nA

Effect on ACh or nicotine induced Imax responses [4]: completely abolished | inhibition at 1000 µM [5]: 99% | Effect on ACh or nicotine induced Imax responses [6]: completely abolished
SMILES: CNC1(C)C2CCC(C2)C1(C)C (centres unmarked) [Mecamylamine, mecamylamine]

SMILES: CN1CCC[C@H]1c1cccnc1 [Nicotine, L-nicotine]
EC50 ([1]; Potency EC50 (95% CI), α2(T22I)β2(1:1) cRNA ratio, −70 mV): 6.7 µM | Higher agonist sensitivity of 1:10 (HS) than 1:1 or 10:1 receptors [1]: 3–5 fold | Lower Imax of 10:1 than 1:1 receptors [1]: ~ 23 fold | Lower agonist sensitivity of 10:1 than 1:1 receptors [1]: ~ 2 fold | Hill coefficient nH ± SE ([1]; α2(T22I)β2(1:1)): 1.2 ± 0.08 | Imax Conc. (concentration where Imax is achieved) ([1]; α2(T22I)β2(1:1)): 100 µM | Peak response Imax (Mean±SE) ([1]; α2(T22I)β2(1:1)): 1463 ± 136 nA | Hill coefficient nH ± SE ([1]; α2(T22I)β2(1:10)): 1 ± 0.07 | Imax Conc. (concentration where Imax is achieved) ([1]; α2(T22I)β2(1:10)): 31.6 µM | Peak response Imax (Mean±SE) ([1]; α2(T22I)β2(1:10)): 1004 ± 91 nA | Hill coefficient nH ± SE ([1]; α2(T22I)β2(10:1)): 1.1 ± 0.2 | Imax Conc. (concentration where Imax is achieved) ([1]; α2(T22I)β2(10:1)): 100 µM | Peak response Imax (Mean±SE) ([1]; α2(T22I)β2(10:1)): 62 ± 12 nA | EC50 ([7]; α2β4(1:1) cRNA ratio): 4.7 µM | EC50 ([7]; α2β4(1:10) cRNA ratio, putative HS): 3.8 µM | EC50 ([7]; α2β4(10:1) cRNA ratio, putative LS): 11 µM | Hill coefficient nH ± SE ([7]; α2β4(1:1)): 1.1 ± 0.1 | Imax Conc. (concentration where Imax is achieved) ([7]; α2β4(1:1)): 100 µM | Peak response Imax (Mean±SE) ([7]; α2β4(1:1)): 2088 ± 96 nA | Peak response Imax (Mean±SE) ([7]; α2β4(1:1), listed as nicotine): 2088 nA | Hill coefficient nH ± SE ([7]; α2β4(1:10)): 1.3 ± 0.08 | Imax Conc. (concentration where Imax is achieved) ([7]; α2β4(1:10)): 100 µM | Peak response Imax (Mean±SE) ([7]; α2β4(1:10)): 1814 ± 155 nA | Hill coefficient nH ± SE ([7]; α2β4(10:1)): 1.6 ± 0.09 | Imax Conc. (concentration where Imax is achieved) ([7]; α2β4(10:1)): 100 µM | Peak response Imax (Mean±SE) ([7]; α2β4(10:1)): 1139 ± 93 nA | EC50 ([2]; α2β2(1:1) cRNA ratio): 1.8 µM | EC50 ([2]; α2β2(1:10) cRNA ratio, putative HS): 0.83 µM | EC50 ([2]; α2β2(10:1) cRNA ratio, putative LS): 6.3 µM | Peak current [2]: 291±55 nA | Higher agonist sensitivity of 1:10 (HS) than 1:1 receptors [2]: 2–3 fold | Lower Imax of 1:10 (HS) than 1:1 or 10:1 receptors [2]: 72–82% | Higher agonist sensitivity of 1:10 (HS) than 10:1 (LS) receptors [2]: 8–18 fold | Lower Imax of 10:1 than 1:1 receptors [2]: ~ 36% | Lower agonist sensitivity of 10:1 than 1:1 receptors [2]: ~ 3.5 fold | Hill coefficient nH ± SE ([2]; α2β2(1:1)): 0.8 ± 0.08 | Imax Conc. (concentration where Imax is achieved) ([2]; α2β2(1:1)): 100 µM | Peak response Imax (Mean±SE) ([2]; α2β2(1:1)): 373 ± 33 nA | Hill coefficient nH ± SE ([2]; α2β2(1:10)): 1.1 ± 0.13 | Imax Conc. (concentration where Imax is achieved) ([2]; α2β2(1:10)): 31.6 µM | Peak response Imax (Mean±SE) ([2]; α2β2(1:10)): 68 ± 7.8 nA | Hill coefficient nH ± SE ([2]; α2β2(10:1)): 1.2 ± 0.06 | Imax Conc. (concentration where Imax is achieved) ([2]; α2β2(10:1)): 100 µM | Peak response Imax (Mean±SE) ([2]; α2β2(10:1)): 239 ± 21 nA | EC50 ([8]; α2(T22I)β4(1:1) cRNA ratio): 12 µM | EC50 ([8]; α2(T22I)β4(1:10) cRNA ratio, putative HS): 2.6 µM | EC50 ([8]; α2(T22I)β4(10:1) cRNA ratio, putative LS): 14 µM | Hill coefficient nH ± SE ([8]; α2(T22I)β4(1:1)): 1.8 ± 0.07 | Imax Conc. (concentration where Imax is achieved) ([8]; α2(T22I)β4(1:1)): 100 µM | Peak response Imax (Mean±SE) ([8]; α2(T22I)β4(1:1)): 1527 ± 245 nA | Peak response Imax (Mean±SE) ([8]; α2(T22I)β4(1:1), listed as nicotine): 1527 nA | Hill coefficient nH ± SE ([8]; α2(T22I)β4(1:10)): 1.2 ± 0.04 | Imax Conc. (concentration where Imax is achieved) ([8]; α2(T22I)β4(1:10)): 100 µM | Peak response Imax (Mean±SE) ([8]; α2(T22I)β4(1:10)): 3996 ± 168 nA | Hill coefficient nH ± SE ([8]; α2(T22I)β4(10:1)): 2 ± 0.2 | Imax Conc. (concentration where Imax is achieved) ([8]; α2(T22I)β4(10:1)): 100 µM | Peak response Imax (Mean±SE) ([8]; α2(T22I)β4(10:1)): 402 ± 70 nA | Peak current lower than wild-type α2β4 ([8]; α2(T22I)β4 vs α2β4, 1:1 cRNA (mixture of isoforms)): ~ 30% | Peak current [3]: 24±5 nA

Reference: paper PMC3984001 (Neuropharmacology, 2014)
